Measurements taken from patent US8278309B2, “Synthetic mimetics of host defense and uses thereof” (priority 2008, dated 2012).
Entries after “also recorded” stand apart in the source; their conditions may differ. Counter-ions that a name gives are not always drawn.

Key:
Acinetobacter spp. = experiment: MIC broth microdilution, Gram-negative clinical isolates; type: cell-based; details: 2-3 isolates/organism
Protocol: (§1) Compound A was evaluated in vitro in accordance with defined CLSI documents specific to the organisms (aerobic, anaerobic or yeast) tested in this study. Ampicillin, ceftazidime, cefuroxime, ciprofloxacin, linezolid, and vancomycin were tested alongside as comparator agents for aerobic bacteria; clindamycin and metronidazole were tested as comparators for anaerobes; fluconazole was tested as a comparator for yeast isolates. Stock solutions of Compound A were prepared in dimethyl sulfoxide (DMSO). Ampicillin, ceftazidime, cefuroxime, ciprofloxacin, linezolid, vancomycin, metronidazole, clindamycin, and fluconazole were prepared each according to its manufacturer's guideline.
(§2) Minimum inhibitory concentrations (MICs) in μg/ml were determined according to CLSI guideline M7-A7 by broth microdilution. All aerobes were tested using Mueller-Hinton broth medium with the exception of Streptococcus spp., which were tested using cation-adjusted Mueller-Hinton broth supplemented with 2-5% lysed horse blood.

Citrobacter freundi = experiment: as above; type: cell-based; details: Citrobacter freundi; 2-3 isolates/organism; read-out: MIC
Protocol: as §1, §2

Citrobacter koseri = experiment: as above; type: cell-based; details: 2-3 isolates/organism, read-out: MIC
Protocol: as §1, §2

Enterobacter cloacae = experiment: as above; type: cell-based; details: 2-3 isolates/organism, read-out: MIC
Protocol: as §1, §2

Escherichia coli = experiment: as above; type: cell-based; details: 2-3 isolates/organism, read-out: MIC
Protocol: as §1, §2

Haemophilus influenzae = experiment: as above; type: cell-based; details: 2-3 isolates/organism, read-out: MIC
Protocol: as §1, §2

Klebsiella oxytoca = experiment: as above; type: cell-based; details: 2-3 isolates/organism, read-out: MIC
Protocol: as §1, §2

Klebsiella pneumoniae = experiment: as above; type: cell-based; details: 2-3 isolates/organism, read-out: MIC
Protocol: as §1, §2

Providencia stuartii = experiment: as above; type: cell-based; details: 2-3 isolates/organism, read-out: MIC
Protocol: as §1, §2

[1] = test system: S. aureus and coagulase-negative staphylococci; experiment: MICs with Staphylococcus species with defined resistance phenotypes; type: cell-based; details: for MIC range: in µg/mL
Protocol: Evaluation of the susceptibility profiles of Compound A against selected isolates was carried out in vitro by broth microdilution methodology using Mueller-Hinton broth medium according to CLSI document M7-A7. CLSI interpretive breakpoints were applied where applicable as directed by CLSI document M100-S17.

S. aureus = experiment: MIC or MIC90 vs S. aureus (selectivity table); type: cell-based; details: Staphylococcus aureus; * marks MIC90
MSSA ATCC 29213 = experiment: Serial passage resistance, MSSA; type: cell-based, S. aureus; details: 0.5×MIC, 17 passages
Protocol: (§3) Frozen bacterial stocks (20 μL) of S. aureus ATCC29213 or methicillin-resistant S. aureus (MRSA ATCC 33591) were inoculated into 3 mL cation-adjusted Mueller-Hinton medium and incubated at 37° C. on a shaker platform (250 rpm) overnight. The suspension was diluted to approximately 5×10^5 cfu/mL and inoculated into a polypropylene (Costar) 96-well round bottom plate (90 μL volumes). Compound stock solutions of Compound A and norfloxacin (Sigma Aldrich, St. Louis, Mo.; Catalogue# N9890) were prepared in DMSO and serial two-fold dilutions of compound were made in 0.01% acetic acid, 0.2% bovine serum albumin directly in the wells of the polypropylene plate at 10 μL/well. Final concentrations of Compound A were 50, 25, 12.5, 6.25, 3.13, 1.56, 0.78, 0.39, 0.19, 0.098, 0.049, and 0.024 μg/mL. Final concentration ranges of norfloxacin were 100, 50, 25, 12.5, 6.25, 3.13, 1.56, 0.78, 0.39, 0.19, 0.098, and 0.049 μg/mL. […] All samples were performed in triplicate. Following a 24 hour incubation at 37° C., cell growth was assessed by observing the presence of “acceptable growth”, defined by CLSI as a ≧2 mm button or definite turbidity. The MIC wells were defined as the lowest concentration where acceptable growth was not observed. For serial passage, 50 μL aliquots were taken from 2 of 3 replicate wells at 0.5×MIC and combined into 900 μL of fresh cation-adjusted Mueller-Hinton medium. The OD600 was measured and the cell suspensions were inoculated into polypropylene 96-well round bottom plates (90 μL volumes) at approximately 5×10^5 cfu/mL. Ten μL of compound stock solutions were added previously to the wells to achieve the concentration ranges for each compound described above. All samples were performed in triplicate. The plates were incubated for 24 hours at 37° C. This process was repeated for a total of 17 passages and MIC values were recorded at each passage.

MRSA ATCC 33591 = experiment: Serial passage resistance, MRSA; type: cell-based, S. aureus; details: 0.5×MIC, 17 passages
Protocol: as §3

[2] = In vitro metabolic stability, blood plasma (data not shown); type: in vitro ADME
Protocol: Pooled plasma samples from human (mixed gender), rat (mixed breed and gender) and dog (mixed breed and gender) were incubated with Compound A (5 μM) at 37° C. for 0 and 60 minutes (duplicate samples). Incubations were terminated by addition of ice-cold precipitation solvent (acetonitrile:glacial acetic acid, 9:1 v/v). Supernatants were diluted with equal volume of 0.1% formic acid and analyzed by HPLC-MS/MS. Plasma stability is reported as % parent compound at 60 minutes relative to amount of parent at 0 minutes.

MSSA 29213 = experiment: Mouse thigh burden model against MSSA 29213; type: in vivo
MRSA 33591 = experiment: Mouse thigh burden model against MRSA 33591; type: in vivo
S. aureus (ATCC 13709) = experiment: Mouse sepsis model, S. aureus infection; type: in vivo; details: for protection from mortality: 1 & 7 hr after inoculation, observed 6 days
Protocol: Sterile saline, vancomycin, or Compound A were administered to separate groups of 8-week old female CD-1 mice (8 mice/group) 1 and 7 hours after i.p. injections of S. aureus (ATCC 13709, 5×10^7 cfu/mL in 5% mucin, 0.5 mL/mouse). Compound A was dissolved in 50%/50% v/v sterile USP purified water/TBS. A suspension of S. aureus was prepared from colonies transferred from the TSA plate to sterile PBS. An aliquot of the stock suspension was added to 5% mucin for a final concentration of about 5×10^7 cfu/mL.

in vivo [3] = details: mouse, iv
Protocol: (§4) Maximum tolerated dose (MTD) determinations were made in ascending/descending dose studies in mice and rats. Compound A was administered by either i.v. bolus injection in the tail vein of mice and rats or by i.v. infusion via catheter in the femoral vein of rats. At each dose, two to three animals were administered compound and clinical signs were recorded over a 4 to 7 day period. Gross necropsy was performed at the conclusion of the study.

in vivo [4] = details: rat, iv
Protocol: as §4

[5] = Stability in presence of plasma and isolated hepatocytes; details: multiple species

Compound: N=C(N)NCCCCC(=O)Nc1cc(C(F)(F)F)cc(NC(=O)c2cc(C(=O)Nc3cc(C(F)(F)F)cc(NC(=O)CCCCNC(=N)N)c3O[C@H]3CCNC3)ncn2)c1O[C@H]1CCNC1 [Compound A, pyrimidine-4,6-dicarboxylic acid bis-{[3-(5-guanidino-pentanoylamino)-2-((R)-pyrrolidin-3-yloxy)-5-trifluoromethyl-phenyl]-amide}tetrahydrochloride]
- MIC (Acinetobacter spp.): 4 mg/L
- MIC (Citrobacter freundi): 2 to 4 mg/L
- MIC (Citrobacter koseri): 1 to 2 mg/L
- MIC (Enterobacter cloacae): 0.5 to 4 mg/L
- MIC (Escherichia coli): 1 to 2 mg/L
- MIC (Haemophilus influenzae): 4 to 8 mg/L
- MIC (Klebsiella oxytoca): 2 to 8 mg/L
- MIC (Klebsiella pneumoniae): 1 to 2 mg/L
- MIC (Providencia stuartii): 16 to 64 mg/L
- MIC range ([1]; DAP-NS OXA-R, 5 isolates): 0.5-2
- MIC range ([1]; Drug-suscept., 59 isolates): 0.25-1
- MIC range ([1]; LZD-NS OXA-R, 5 isolates): 0.5-1
- MIC range ([1]; OXA-R, 69 isolates): 0.25-2
- MIC90 ([1]; Staphylococcus aureus, screen of 150 Staphylococci organisms): 0.5 to 2 mg/L
- MIC range ([1]; VRSA/VISA DAP-NS OXA-R, 3 isolates): 0.5-1
- MIC range ([1]; VRSA/VISA OXA-R, 7 isolates): 0.5-1
- MIC90 (S. aureus): 1 mg/L
- change in MIC values on serial passage (MSSA ATCC 29213): did not result in any change; also recorded: no change
- change in MIC values on serial passage (MRSA ATCC 33591): did not result in any change; also recorded: no change
- loss of compound in plasma ([2]; cynomolgus monkeys): little to no loss
- loss of compound in plasma ([2]; rabbits): little to no loss
- efficacy in vivo (MSSA 29213): efficacious
- efficacy in vivo (MRSA 33591): efficacious
- protection from mortality (S. aureus (ATCC 13709); 2×5 mg/kg i.v.): full protection
- protection from mortality (S. aureus (ATCC 13709); 2×10 mg/kg i.v.): full protection
- efficacy relative to vancomycin treatment group (S. aureus (ATCC 13709); 3, 5, 10 mg/kg/dose i.v.): comparable to the vancomycin treatment group
- MTD (in vivo [3]): 30 mg/kg
- MTD (in vivo [4]): > 24 mg/kg
- stability in the presence of plasma and isolated hepatocytes [5]: stable
